From publication PMC8069897, “A Targeted-Covalent Inhibitor of 17β-HSD1 Blocks Two Estrogen-Biosynthesis Pathways: In Vitro (Metabolism) and In Vivo (Xenograft) Studies in T-47D Breast Cancer Models” (Cancers, 2021)

Target: T1, 17β-hydroxysteroid dehydrogenase type 1 (17β-HSD1) (Homo sapiens, UniProt P14061)
T1 construct: gene HSD17B1
T1 sequence (P14061 2-328): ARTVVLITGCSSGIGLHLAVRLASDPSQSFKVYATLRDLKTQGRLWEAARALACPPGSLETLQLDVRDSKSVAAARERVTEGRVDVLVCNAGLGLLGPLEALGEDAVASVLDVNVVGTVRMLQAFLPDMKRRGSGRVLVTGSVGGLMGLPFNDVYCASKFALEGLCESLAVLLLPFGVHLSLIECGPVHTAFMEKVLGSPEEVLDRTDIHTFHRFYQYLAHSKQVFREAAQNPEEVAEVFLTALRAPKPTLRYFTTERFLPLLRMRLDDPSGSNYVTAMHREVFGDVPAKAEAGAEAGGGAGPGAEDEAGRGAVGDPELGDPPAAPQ
Assay: inhibition of […]-DHEA to […]-5-diol conversion in intact T-47D cells (endogenous […]β-HSD1), TLC
Assay type: cell-based

C[C@]12CC[C@@H]3c4ccc(CCBr)cc4CC[C@H]3[C@@H]1C[C@H](Cc1cccc(C(N)=O)c1)[C@@H]2O [PBRM]
IC50: 770 nM
